Test results published in US5773438A, “Synthetic matrix metalloprotease inhibitors and use thereof” (Glycomed Incorporated, priority 1994, dated 1998).
Entries after “also recorded” stand apart in the source; their conditions may differ.

Key:
[1] = molecular target: T1, human skin fibroblast collagenase (Homo sapiens, UniProt P03956); experiment: inhibition of collagenase, synthetic thiol ester substrate, Ki (Table 1); format: biochemical
T1 construct: endogenous in cells; host or cells: human skin fibroblasts
T1 sequence (P03956 100-469): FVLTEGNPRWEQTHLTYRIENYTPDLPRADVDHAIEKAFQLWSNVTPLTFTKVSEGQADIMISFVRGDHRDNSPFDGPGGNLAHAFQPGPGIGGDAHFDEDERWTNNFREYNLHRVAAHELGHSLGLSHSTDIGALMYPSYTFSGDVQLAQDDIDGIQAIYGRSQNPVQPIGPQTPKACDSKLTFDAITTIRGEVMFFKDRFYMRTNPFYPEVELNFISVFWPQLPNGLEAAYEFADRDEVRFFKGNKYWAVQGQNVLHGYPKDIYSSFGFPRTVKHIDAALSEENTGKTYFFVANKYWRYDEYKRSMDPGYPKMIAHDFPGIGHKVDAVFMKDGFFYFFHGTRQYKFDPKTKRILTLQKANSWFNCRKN
Description: Specifically, assay of inhibition activity can be conducted as follows. Inhibitors may be assayed against crude or purified human skin fibroblast collagenase, or purified human gingival fibroblast collagenase using the synthetic thiol ester substrate at pH 6.5 exactly as described by Kortylewicz & Galardy, J Med Chem (1990) 33:263-273, at a collagenase concentration of 1-2 nM. The candidate inhibitors are tested for their ability to inhibit crude collagenase and gelatinase from human skin fibroblasts, crude collagenase and gelatinase from purulent human neutrophils in this assay.

[2] = molecular target: T2, Natural human 72kD gelatinase (Homo sapiens, UniProt P08253); experiment: inhibition of 72kD gelatinase (Table 2); format: biochemical; conditions: read-out: 72kD G inhibitory activity
T2 sequence (P08253 110-660): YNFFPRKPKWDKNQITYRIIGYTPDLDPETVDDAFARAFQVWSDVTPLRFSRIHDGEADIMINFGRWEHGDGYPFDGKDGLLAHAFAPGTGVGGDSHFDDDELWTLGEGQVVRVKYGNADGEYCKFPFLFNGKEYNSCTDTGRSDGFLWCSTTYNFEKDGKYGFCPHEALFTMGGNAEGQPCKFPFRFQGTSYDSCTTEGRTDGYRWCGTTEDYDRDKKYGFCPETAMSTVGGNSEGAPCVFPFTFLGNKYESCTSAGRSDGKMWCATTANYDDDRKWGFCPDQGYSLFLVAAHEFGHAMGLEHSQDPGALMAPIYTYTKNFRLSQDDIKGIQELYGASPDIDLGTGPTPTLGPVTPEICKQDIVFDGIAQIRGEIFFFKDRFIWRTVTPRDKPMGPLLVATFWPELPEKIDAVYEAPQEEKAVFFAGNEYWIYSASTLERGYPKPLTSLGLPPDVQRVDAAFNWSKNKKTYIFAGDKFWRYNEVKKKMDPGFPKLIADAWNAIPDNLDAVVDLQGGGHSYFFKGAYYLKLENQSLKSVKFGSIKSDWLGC
Description: (§6) Specifically, assay of inhibition activity can be conducted as follows. […] Assays for inhibition of human stromelysin are conducted as described by Teahan, J., et al., Biochemistry (1989) 20:8497-8501.
(§7) Assay of inhibition activity can be conducted using a fluorogenic substrate developed by Knight et al., FEBS Letters (1992) 296:263. This method uses a fluorometer to determine the rate of substrate hydrolysis in a 96 well plate format. Reaction rates are determined at several substrate concentrations, and multiple inhibitor levels. The data are analyzed by Lineweaver-Burk, Dixon and Henderson plot analyses (Enzyme Kinetics (1975) Irwin Segal (John Wiley & Sons, Inc., publishers), and as described by Henderson, Biochem J. (1972) 127:321). The substrate levels range from 10-30μM. […] Inhibitors may be assayed against purified 72 kD gelatinase, 92 kD gelatinase, neutrophil collagenase, stromelysin or other proteases as appropriate. The enzymes are activated at 37° C. with APMA (4-aminophenylmercuric acetate), and the assays are carried out at room temperature.

92kD gelatinase = 92kD gelatinase (Homo sapiens, UniProt P14780); experiment: inhibition of 92kD gelatinase (Table 2); format: biochemical; conditions: read-out: 92kD G inhibitory activity
Sequence of 92kD gelatinase (P14780 107-707 limits assumed): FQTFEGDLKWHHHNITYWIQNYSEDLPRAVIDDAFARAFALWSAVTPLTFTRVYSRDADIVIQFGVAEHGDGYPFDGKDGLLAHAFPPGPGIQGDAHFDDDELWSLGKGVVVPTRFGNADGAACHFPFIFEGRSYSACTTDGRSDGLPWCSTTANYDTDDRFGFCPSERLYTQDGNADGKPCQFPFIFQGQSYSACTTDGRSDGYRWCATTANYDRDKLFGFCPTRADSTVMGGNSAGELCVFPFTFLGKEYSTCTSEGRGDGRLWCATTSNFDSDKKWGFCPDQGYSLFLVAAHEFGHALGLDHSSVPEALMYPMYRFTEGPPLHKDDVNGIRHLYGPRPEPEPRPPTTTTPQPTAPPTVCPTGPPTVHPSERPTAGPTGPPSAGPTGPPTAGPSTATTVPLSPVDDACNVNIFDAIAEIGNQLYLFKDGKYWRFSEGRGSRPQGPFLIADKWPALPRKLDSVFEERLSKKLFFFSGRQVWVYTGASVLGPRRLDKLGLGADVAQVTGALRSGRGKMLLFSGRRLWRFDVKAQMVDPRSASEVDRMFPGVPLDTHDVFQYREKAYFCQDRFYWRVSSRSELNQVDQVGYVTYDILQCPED

Stromelysin = Stromelysin (Homo sapiens, UniProt P08254); experiment: inhibition of stromelysin (Table 2); format: biochemical; conditions: read-out: Strom inhibitory activity
Sequence of Stromelysin (P08254 100-477): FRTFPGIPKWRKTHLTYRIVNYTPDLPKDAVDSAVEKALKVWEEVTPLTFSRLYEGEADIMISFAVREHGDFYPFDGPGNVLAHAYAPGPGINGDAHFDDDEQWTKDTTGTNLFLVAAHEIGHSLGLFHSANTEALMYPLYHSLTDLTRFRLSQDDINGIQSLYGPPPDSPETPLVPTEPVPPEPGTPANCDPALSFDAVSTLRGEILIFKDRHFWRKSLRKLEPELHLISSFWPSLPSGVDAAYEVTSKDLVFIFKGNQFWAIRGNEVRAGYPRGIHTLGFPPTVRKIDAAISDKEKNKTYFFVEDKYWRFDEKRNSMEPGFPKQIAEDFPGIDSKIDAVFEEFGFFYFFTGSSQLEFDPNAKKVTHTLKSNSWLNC
Description: as §6, §7

[3] = molecular target: Recombinant neutrophil collagenase (Homo sapiens, UniProt P22894); experiment: inhibition of recombinant neutrophil collagenase (Table 2); format: biochemical; conditions: read-out: NC inhibitory activity
Sequence of Recombinant neutrophil collagenase (P22894 101-467): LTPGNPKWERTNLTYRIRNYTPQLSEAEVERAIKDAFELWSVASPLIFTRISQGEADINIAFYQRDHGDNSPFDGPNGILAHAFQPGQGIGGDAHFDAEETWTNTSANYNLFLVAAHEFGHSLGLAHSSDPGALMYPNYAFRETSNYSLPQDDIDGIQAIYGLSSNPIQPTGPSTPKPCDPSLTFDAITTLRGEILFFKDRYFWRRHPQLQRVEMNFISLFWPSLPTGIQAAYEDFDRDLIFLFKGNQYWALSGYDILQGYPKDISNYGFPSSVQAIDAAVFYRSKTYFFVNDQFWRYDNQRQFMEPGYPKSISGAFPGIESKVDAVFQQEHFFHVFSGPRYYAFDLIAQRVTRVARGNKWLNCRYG
Description: as §6, §7

[4] = molecular target: T3, Human gingival fibrblast collagenase (Homo sapiens, UniProt P03956); experiment: inhibition of human gingival fibroblast collagenase (Table 2); format: biochemical; conditions: read-out: HGFC inhibitory activity
T3 construct: endogenous in cells; host or cells: human gingival fibroblasts
T3 sequence (P03956 100-469): T1 sequence (P03956 100-469)
Description: as §6, §7

[5] = test system: protease activity of chronic wound fluid; experiment: Azocoll assay of protease activity in chronic wound fluid; format: biochemical, human
Description: (§1) Fluids were collected from 3 types of human wounds termed closed spontaneously healing wounds, open slowly healing wounds, and open chronic wounds. In the first category were fluids collected from the chest wall of women following mastectomy surgery. Fluids from non-infected wounds that were left open for valid surgical reasons were considered open slowly healing wounds. An occlusive dressing was placed over the wound bed, and fluids were collected after 2-6 hours of occlusion. Finally, fluids were also collected from chronic open wounds by covering the wounds with occlusive dressings. Wounds were considered to be chronic if they were not clinically infected and had been open and not healing for more than 4 weeks.
(§2) The various wound fluids were assayed for matrix metalloproteinase activity using the Azocoll assay essentially as described by Chavira, et al., Analytic Biochemistry (1984), 136:446.
(§3) The fluids were centrifuged, and the supernatants filtered using a 0.45μ sterile Gelman filter. The filtrates were stored frozen at -80° C. until tested for protease activity.
(§4) The effects of four inhibitors on the protease activity present in wound fluids were determined. The inhibitors were: compounds
Stock solutions of the four inhibitors were all prepared at a concentration of 800 μg/ml. Due to different solubility properties of the inhibitors, different techniques were utilized. […] S1209 was dissolved in 1% DMSO then dissolved in 10 mM citrate, pH 5.5, containing 0.05% methyl cellulose. 39A was dissolved in propylene glycol (to give a final concentration of 2.4%) then dissolved in 1 mM CaCl2, 50 mM Tris-Cl, pH 7.8. 21A was dissolved in propylene glycol (2.4%) methyl cellulose (0.05%) and 10 mM citrate, pH 8.
The protease substrate, Azocoll, was obtained from Sigma Chemical Corporation and it is a substrate for collagenase/gelatinase-like metalloproteinase enzymes and general proteases. Clostridium histolyticum collagenase (the crude form of the enzyme) was from Worthington Biochemicals. General chemicals including TRIS buffer, DMSO, and CaCl2 were from Sigma Chemical Corporation.
(§5) Briefly, 900 μl of the Azocoll substrate suspension in buffer ([…] in 50 mM TRIS, pH 7.8, 1 mM CaCl2) was added to 1.5 ml microcentrifuge tubes then 50 μl of inhibitor (or buffer) and 50 μl of chronic wound fluid (or collagenase standard) were added to the reaction tube. The reaction tubes were placed at 37° C. in a shaker that inverted the tubes 30 times per minute. After 24 hours of incubation, the reaction tubes were centrifuges at 10,000 X g and the absorbance of the supernatant solution was measured at 520 nm with a Milton-Roy spectrophotometer. Proteolysis of Azocoll substrate generates soluble colored fragments from the insoluble Azocoll substrate. Wound fluid samples were incubated alone or with the inhibitors. Controls included incubation of the Azocoll substrate with the assay buffer to measure spontaneous degradation of the substrate. A standard curve for digestion of the Azocoll substrate was generated by incubation of the Azocoll with crude bacterial collagenase. Protease levels were expressed as net μg of collagenase equivalent per ml of chronic wound fluid. In the figures, certain of the wound fluids are referred to by an individual name.
For these experiments, due to the different solubility properties of the inhibitors, different techniques were utilized. […] S1209 was dissolved in 1% DMSO then dissolved in 10 mM citrate, pH 5.5, containing 0.05% methyl cellulose. 39A was dissolved in propylene glycol (to give a final concentration of 2.4%) then dissolved in 1 mM CaCl2, […] Tris-Cl, pH 7.8. 21A was dissolved in propylene glycol (2.4%) methyl cellulose (0.05%) and 10 mM citrate, pH 8.

[6] = test system: protease activity in open and chronic wound fluids; experiment: Azocoll assay of protease activity in open and chronic wound fluids; format: biochemical, human; conditions: for inhibition of Azocoll-degrading proteases in wound fluids: FIG. 6; for effect on proteolytic activity of open and chronic wound fluids: FIG. 5
Description: as §1, §2, §3, §4
These inhibitors were compared to certain other inhibitors and these were UL001 [HSCH2 CH(CH2 CH(CH3)2)CO--Phe--Ala--NH2 ] obtained from Peptides International and MP506, obtained from Elastin Products. EDTA (ethylenediamine tetraacetic acid) and PMSF (phenylmethylsulfonyl fluoride) were also studied.
as §5

angiogenesis = conditions: cited from earlier work

| Ki [2] [nM] | Ki (92kD gelatinase) [nM] | Ki (Stromelysin) [nM] | Ki [3] [nM] | Ki [4] [nM] | SMILES | other results |
| --- | --- | --- | --- | --- | --- | --- |
| 145 | 65 | 19300 | 32 |  | CC(C)C[C@H](CC(=O)O)C(=O)N[C@@H](Cc1c[nH]c2ccccc12)C(=O)NCCCN1CCOCC1 [Compound 48] |  |
| 0.81 | 0.97 | 57 | 0.19 | 0.6 | CC(C)C[C@H](CC(=O)NO)C(=O)N[C@@H](Cc1c[nH]c2ccccc12)C(=O)NCCN1CCOCC1 [Compound 52, N-[2-Isobutyl-3-(N'-hydroxyamidocarbonyl)-propanoyl]-L-tryptophan-3(4-morpholinyl)-n-ethylamide] |  |
| 57 | 37 | 5140 | 20 | 2.2 | CC(C)C[C@H](CC(=O)O)C(=O)N[C@@H](Cc1c[nH]c2ccccc12)C(=O)NCc1ccccc1 [Compound 57, N-[2-Isobutyl-3-hydroxycarbonylpropanoyl]-L-tryptophan-benzylamide] |  |
| > 10000 | > 10000 | > 10000 | > 10000 | 2000 | C[C@H](NC(=O)[C@H](Cc1c[nH]c2ccccc12)NC(=O)[C@@H](CCC(=O)O)NC(=O)OC(C)(C)C)c1ccccc1 [Compound 78] |  |
| > 10000 | 21100 | > 10000 | > 10000 | 60 | C[C@H](NC(=O)[C@H](Cc1c[nH]c2ccccc12)NC(=O)[C@@H](CCC(=O)NO)NC(=O)OC(C)(C)C)c1ccccc1 [Compound 79, Boc-D-gamma-Hydroxamidoglutamyl-L-tryptophan-(S)-methylbenzylamide] |  |
| > 10000 | > 10000 | > 10000 | > 10000 | 500 | C[C@H](NC(=O)[C@H](Cc1c[nH]c2ccccc12)NC(=O)[C@@H](CC(=O)O)NC(=O)OC(C)(C)C)c1ccccc1 [Compound 81] |  |
| 9260 | 3580 | > 10000 | 3260 | 80 | C[C@H](NC(=O)[C@H](Cc1c[nH]c2ccccc12)NC(=O)[C@@H](CC(=O)NO)NC(=O)OC(C)(C)C)c1ccccc1 [Compound 82, Boc-D-beta-hydroxamidoaspartyl-1 -tryptophan-(S)-methylbenzylamide] |  |

Continued, compound first:

| SMILES | Ki [2] [nM] | Ki (92kD gelatinase) [nM] | Ki (Stromelysin) [nM] | Ki [3] [nM] | Ki [4] [nM] | other results |
| --- | --- | --- | --- | --- | --- | --- |
| CCCCCCCCCCCCNC(=O)[C@H](Cc1c[nH]c2ccccc12)NC(=O)C(CC(=O)NO)CC(C)C (single isomer, unassigned) [Compound 19A, N-[2-isobutyl-3-(N'-hydroxyamidocarbonyl)-propanoyl]-L-tryptophan dodecylamide] | 0.37 | 1.29 | 40 | 0.62 |  | Ki [1]: 300 nM |
| CC(C)CC(CC(=O)NO)C(=O)N[C@@H](Cc1c[nH]c2ccccc12)C(=O)NCCCCCCNC(=O)OCc1ccccc1 (stereo partly drawn) [Compound 27A, N-[L-2-isobutyl-3-(N'-hydroxyamidocarbonyl)-propanoyl]-L-tryptophan(6-phenyl-methoxycarbonyl-1-aminohexyl)amide] | 2.9 |  | 94 | 21 | 0.1 | Ki [1]: 13 nM |
| CC(C)CC(CC(=O)NO)C(=O)N[C@@H](Cc1c[nH]c2ccccc12)C(=O)NC1CCCCC1 (stereo partly drawn) [Compound 28A, N-[L-2-Isobutyl-3-(N'-hydroxyamidocarbonyl)-propanoyl]-L-tryptophan cyclohexylamide] | 4 |  | 78 | 1 | 0.1 | Ki [1]: 50 nM |
| CNC(=O)C(Cc1ccc(OC)cc1)NC(=O)C(CC(=O)NO)CC(C)C (stereo not drawn) [Compound S1209] |  |  |  |  |  | inhibition of protease activity of chronic wound fluid ([5]; FIG. 7, highest concentration (800 μg/ml)): 70%; inhibition of Azocoll-degrading proteases in wound fluids [6]: very effectively; also recorded: very effective inhibitors |
| O=C(O)CN(CCN(CC(=O)O)CC(=O)O)CC(=O)O [EDTA, ethylenediamine tetraacetic acid, reference compound] |  |  |  |  |  | effective concentrations (order of magnitude) ([5]; FIG. 4): mM; inhibition of protease activity of a chronic wound fluid ([5]; FIG. 4): effectively inhibited; reduction of protease activity ([5]; FIG. 4, EDTA at mM concentrations): approximately 96%; effect on proteolytic activity of open and chronic wound fluids [6]: very effective inhibitors; inhibition of Azocoll-degrading proteases in wound fluids [6]: very effectively; reduction of proteolytic activity in open or chronic wound fluids ([6]; fluids with high levels of Azocoll-degrading protease activity): 95% |
| O=S(=O)(F)Cc1ccccc1 [PMSF, phenylmethylsulfonyl fluoride, reference compound] |  |  |  |  |  | inhibition of protease activity of a chronic wound fluid ([5]; FIG. 4): not an effective inhibitor except at the highest concentration; reduction of proteolytic activity ([5]; FIG. 4, 500 μM): approximately 65%; effect on levels of protease activity at lower concentrations ([5]; FIG. 4, PMSF 500 μM and 50 μM): slightly increase the levels of protease activity; effect on proteolytic activity of open and chronic wound fluids [6]: did not significantly reduce the proteolytic activity; also recorded: did not reduce the levels of proteolytic activity |
| CC(C)CC(CS)C(=O)N[C@@H](Cc1ccccc1)C(=O)N[C@@H](C)C(N)=O (stereo partly drawn) [UL001] |  |  |  |  |  | inhibition of Azocoll-degrading proteases in wound fluids [6]: very effectively |
| CCCCC[C@H](CC(=O)NO)C(=O)N[C@H](C(=O)N1CCC[C@H]1CO)C(C)C [actinonin] |  |  |  |  |  | activity as an angiogenesis inhibitor (angiogenesis): angiogenesis inhibitor |
